Values of other authors in publication PMC11053612, “Membrane-Fusing Vehicles for Re-Sensitizing Transporter-Mediated Multiple-Drug Resistance in Cancer” (Pharmaceutics, 2024).

Columns and labels:
Conditions in all cases: ref [23],[24],[25],[26]
ABCB1 = molecular target: T1, ABCB1 (Homo sapiens, UniProt P08183); design: method as in PMID 23470221, PMID 7999426, PMID 11309820, PMID 14973080; key: +: whether they are actively transported or not
T1 construct: expressed in transfected cells; host or cells: MDCK II MDR1 (canine kidney MDCK II, transfected; gift of Dr. A. Schinkel, Netherlands Cancer Institute)
T1 sequence (P08183 whole entry): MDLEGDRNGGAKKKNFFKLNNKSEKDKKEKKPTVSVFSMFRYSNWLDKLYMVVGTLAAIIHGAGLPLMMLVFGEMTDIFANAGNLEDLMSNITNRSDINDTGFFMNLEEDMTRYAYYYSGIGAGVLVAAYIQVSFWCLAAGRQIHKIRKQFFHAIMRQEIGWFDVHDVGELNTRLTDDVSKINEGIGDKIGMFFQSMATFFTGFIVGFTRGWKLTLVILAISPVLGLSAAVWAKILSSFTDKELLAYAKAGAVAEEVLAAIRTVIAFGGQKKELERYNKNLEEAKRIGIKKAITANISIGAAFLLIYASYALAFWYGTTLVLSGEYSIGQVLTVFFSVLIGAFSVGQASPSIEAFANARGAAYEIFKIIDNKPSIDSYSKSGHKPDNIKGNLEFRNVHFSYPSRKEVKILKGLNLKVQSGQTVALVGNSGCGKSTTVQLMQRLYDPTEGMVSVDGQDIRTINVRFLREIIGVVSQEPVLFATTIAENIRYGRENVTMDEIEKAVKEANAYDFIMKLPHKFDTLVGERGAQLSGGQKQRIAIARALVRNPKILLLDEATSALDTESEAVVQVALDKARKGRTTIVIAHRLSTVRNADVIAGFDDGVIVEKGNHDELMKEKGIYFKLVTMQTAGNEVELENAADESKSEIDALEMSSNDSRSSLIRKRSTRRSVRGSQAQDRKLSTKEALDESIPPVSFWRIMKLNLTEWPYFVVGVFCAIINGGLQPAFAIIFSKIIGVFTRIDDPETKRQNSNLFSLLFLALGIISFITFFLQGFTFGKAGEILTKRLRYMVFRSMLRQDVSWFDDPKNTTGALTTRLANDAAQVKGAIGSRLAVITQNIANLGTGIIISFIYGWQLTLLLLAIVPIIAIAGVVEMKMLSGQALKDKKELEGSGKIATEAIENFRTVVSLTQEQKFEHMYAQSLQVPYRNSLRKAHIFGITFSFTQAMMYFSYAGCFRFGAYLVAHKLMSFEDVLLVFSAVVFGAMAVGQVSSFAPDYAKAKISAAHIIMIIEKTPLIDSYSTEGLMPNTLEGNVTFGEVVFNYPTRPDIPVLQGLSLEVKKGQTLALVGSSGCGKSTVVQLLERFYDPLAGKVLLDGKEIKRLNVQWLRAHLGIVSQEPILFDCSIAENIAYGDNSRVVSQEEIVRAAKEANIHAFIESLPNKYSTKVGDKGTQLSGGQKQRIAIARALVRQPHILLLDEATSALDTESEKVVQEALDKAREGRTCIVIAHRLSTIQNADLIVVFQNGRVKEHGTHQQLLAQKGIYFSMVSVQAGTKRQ

ABCG2 = system: ABCG2; design: method as in PMID 23470221, PMID 7999426, PMID 11309820, PMID 14973080; key: +: whether they are actively transported or not; −: whether they are actively transported or not
ABCC1 = molecular target: T2, ABCC1 (Homo sapiens, UniProt P33527); design: method as in PMID 23470221, PMID 7999426, PMID 11309820, PMID 14973080; key: +: whether they are actively transported or not; −: whether they are actively transported or not
T2 construct: expressed in transfected cells; host or cells: MDCK II MRP1 (canine kidney MDCK II, transfected; gift of Dr. A. Schinkel, Netherlands Cancer Institute)
T2 sequence (P33527 whole entry): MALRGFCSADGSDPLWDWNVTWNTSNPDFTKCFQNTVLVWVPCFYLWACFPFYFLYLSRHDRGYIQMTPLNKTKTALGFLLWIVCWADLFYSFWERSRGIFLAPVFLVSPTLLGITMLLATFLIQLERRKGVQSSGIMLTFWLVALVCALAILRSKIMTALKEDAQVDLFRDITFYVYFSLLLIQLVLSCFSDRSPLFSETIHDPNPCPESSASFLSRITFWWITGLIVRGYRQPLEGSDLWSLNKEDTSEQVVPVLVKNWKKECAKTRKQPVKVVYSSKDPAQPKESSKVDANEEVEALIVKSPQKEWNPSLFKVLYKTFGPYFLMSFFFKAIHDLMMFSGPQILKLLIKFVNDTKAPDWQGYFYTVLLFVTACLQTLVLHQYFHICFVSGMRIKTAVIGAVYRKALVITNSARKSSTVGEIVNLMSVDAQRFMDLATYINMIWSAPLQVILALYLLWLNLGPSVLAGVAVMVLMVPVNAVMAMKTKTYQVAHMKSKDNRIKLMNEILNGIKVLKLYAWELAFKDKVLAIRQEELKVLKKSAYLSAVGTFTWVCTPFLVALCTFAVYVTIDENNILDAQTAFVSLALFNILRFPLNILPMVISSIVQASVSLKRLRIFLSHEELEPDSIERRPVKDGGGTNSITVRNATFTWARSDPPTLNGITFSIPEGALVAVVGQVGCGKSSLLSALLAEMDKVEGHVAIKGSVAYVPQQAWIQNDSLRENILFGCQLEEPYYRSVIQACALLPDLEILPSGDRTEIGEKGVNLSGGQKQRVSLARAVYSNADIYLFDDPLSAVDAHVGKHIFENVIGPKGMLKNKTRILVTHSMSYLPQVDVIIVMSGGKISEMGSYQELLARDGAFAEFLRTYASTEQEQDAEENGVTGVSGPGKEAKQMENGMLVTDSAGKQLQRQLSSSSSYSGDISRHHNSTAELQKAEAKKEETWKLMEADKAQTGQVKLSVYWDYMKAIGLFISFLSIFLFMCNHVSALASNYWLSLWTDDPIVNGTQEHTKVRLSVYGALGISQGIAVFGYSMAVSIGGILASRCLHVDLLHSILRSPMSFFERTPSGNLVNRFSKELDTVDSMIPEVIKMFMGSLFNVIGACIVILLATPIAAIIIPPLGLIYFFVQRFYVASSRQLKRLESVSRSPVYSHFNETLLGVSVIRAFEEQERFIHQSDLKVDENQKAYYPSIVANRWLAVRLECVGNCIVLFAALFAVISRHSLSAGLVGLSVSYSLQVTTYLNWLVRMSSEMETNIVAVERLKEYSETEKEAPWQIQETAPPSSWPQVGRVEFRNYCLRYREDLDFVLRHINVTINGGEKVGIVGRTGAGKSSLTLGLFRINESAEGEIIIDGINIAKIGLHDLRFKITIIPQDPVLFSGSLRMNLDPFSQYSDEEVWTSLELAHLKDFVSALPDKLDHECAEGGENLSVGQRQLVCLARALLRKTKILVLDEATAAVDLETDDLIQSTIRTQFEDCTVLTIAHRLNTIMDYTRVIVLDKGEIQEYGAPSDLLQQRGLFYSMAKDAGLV

SMILES | actively transported by ABCB1 (ABCB1) | actively transported by ABCG2 (ABCG2) | actively transported by ABCC1 (ABCC1)
O=C(O)CN(CC(=O)O)Cc1cc2c(cc1O)Oc1cc(O)c(CN(CC(=O)O)CC(=O)O)cc1C21OC(=O)c2ccccc21 [Calcein] | + | − | +
C=Cc1c(C)c2cc3nc(c4c5[nH]c(cc6nc(cc1[nH]2)C(C)=C6CC)c(C)c5C(=O)[C@@H]4C(=O)OC)[C@@H](CCC(=O)O)[C@@H]3C [Pheophorbide A] |  | + | −
COC(=O)c1ccccc1-c1c2ccc(=N)cc-2oc2cc(N)ccc12 [Rhodamine 123] | + | − | +
CCOc1ccc(-c2nc3ccc(-c4nc5ccc(N6CCN(C)CC6)cc5[nH]4)cc3[nH]2)cc1 [Hoechst 33324] |  | + | −
